Data as given in patent publication US8765729B2, “Cancer therapy” (Aeolus Sciences, Inc., priority 2001, dated 2014).
Entries after “also recorded” stand apart in the source; their conditions may differ. Where two headings read alike, the source gives them in different places.

Experiments:
mice = settings: 48 hours; for deaths: 4 mice
Method: Animals and treatments. Balb/c male mice that were 6-8 weeks of age were utilized in these studies (Taconic, Germantown, N.Y.). Mice were acclimated to 22° C. in an environmentally controlled room (12-hr light cycles) at least 6 days prior to treatment. Toxicity studies were employed using a moving average method previously described by Weil (Weil, Biometrics 8:249-263 (1952)). Groups of 4 mice were given MnTBAP (50, 88, 153 and 268 mg/kg, ip) and observed over a 48 hour time period.
MnTBAP toxicity was assessed using a moving average method that consisted of four geometric dose groups (50, 88, 153 and 268 mg/kg, ip) of 4 mice each over 48 hours.

[1] = tested on: bleomycin-induced pulmonary fibrosis; assay: Bleomycin-induced pulmonary fibrosis in mice
Method: Noninvasive measurement of airway constriction in mice. The baseline resistance in unrestrained, conscious mice was assessed by whole body barometric plethysmography (Buxco Electronics, Troy, N.Y.). The techniques used were similar to those described by Zhu et al, J. Clin. Invest. 103(6):779-88 (1999)). Mice were placed in whole body plethysmographs with fast differential transducers interfaced to a computer. Measurements were made of respiratory rates, tidal volumes and enhanced pause (PENH). Airway constriction was expressed as PENH=[(Te/0.3Tr)−1]×[2Pef/3Pif], where Te=expiratory time (seconds), Tr=relaxation time (seconds), Pef=peak expiratory flow ([…]), and Pif=peak inspiratory flow (ml/second). Animals were allowed to equilibrate in the chambers for 15 minutes and then PENH was calculated over a 5-minute period.
Hydroxyproline measurement. The lungs were dried at 80° C. until a constant weight is obtained. The dried lungs were hydrolyzed under vacuum in a glass vial in 1 ml of 12 N HCl at 120° C. overnight. The samples were lyophilized and assayed for hydroxyproline content using chloramine-T as previously described (Woessner, Arch. Biochem. Biophys. 93:440-447 (1961)). Histopathology. The lungs were fixed in 4% paraformaldehyde for 24 hours and then processed for paraffin embedding. Sections of lung were stained with routine hematoxylin and eosin or with a Masson trichrome stain to assess the degree of fibrosis. The extent of lung injury and fibrosis was graded by four pathologists, blinded as to the treatment group, on a scale of one (no injury) to ten (severe injury/fibrosis). The major criteria examined included interstitial thickening, collagen deposition, type 2 cell hyperplasia, and inflammatory cell infiltration. Statistical Analyses. Data was analyzed using a two-way analysis of variance (ANOVA) or a one-way ANOVA if no significant interactions were found with the two-way ANOVA. Significant differences between groups were assessed using a Newman-Keuls multiple comparison test. Data was analyzed using a computer program, Prizm (Graph Pad Software, San Diego, Calif.). Statistical significance was set at p<0.05. Results Toxicity and Pharmacokinetic Assessment of MnTBAP in Mice
Mice were randomized into 4 groups using a two by two contingency table where two groups received either saline or bleomycin (3.5 U/kg body weight) by intratracheal instillation. Two groups also received either saline or MnTBAP (5 mg/kg body weight) by ip injection twice daily for 14 days.
Bleomycin given by intratracheal instillation produces a marked airway and alveolar fibrotic response (Evans et al, Am Rev. Respir. Dis. 125(1):89-94 (1982)). Mice were assessed for changes in airway function by measuring a marker, enhanced pause (PENH), of airway narrowing using non-invasive whole body barometric plethysmography. […] Lung fibrosis was also assessed by measuring hydroxyproline content in the lung as an index of collagen accumulation.
One lung from each mouse was instillation fixed with 4% paraformaldehyde and paraffin embedded for histopathology assessment. Tissue sections were stained with hematoxylin and eosin or with Masson trichrome stain to assess the degree of lung injury/fibrosis.

[2] = Pharmacokinetic profile of MnTBAP in mice (serum and lung); settings: 10 mg/kg ip; for Peak Level (Co): two-compartment fit
[3] = tested on: rat lung epithelial cells, L2; bovine endothelial cells, CPA-47
Method: (§1) Two non-tumor cell lines (rat lung epithelial cells, L2; bovine endothelial cells, CPA-47) and one tumor cell line (human adenocarcinoma lung cells, A549) were examined for cell proliferation in the presence or absence of manganic porphyrins. Cells were plated in 24 well plates at 10,000 cells per well in the presence of cytotoxic agent (0-10 mM paraquat) for 24-48 hours plus increasing concentrations of MnTBAP, MnMm-4-PyP and their zinc analogs.

tumor cells (A549) = tested on: tumor cells (A549)
Method: as §1

[4] = tested on: L2, CPA-47 and A549 cells; assay: Cytotoxicity measured by LDH release; settings: 100 μM, 48 hours

## O=C(O)c1ccc(-c2c3nc(c(-c4ccc(C(=O)O)cc4)c4ccc([n-]4)c(-c4ccc(C(=O)O)cc4)c4nc(c(-c5ccc(C(=O)O)cc5)c5ccc2[n-]5)C=C4)C=C3)cc1.[Mn+3] [MnTBAP, manganese (III) tetrakis (4-benzoic acid) porphyrin]
mice; 50 mg/kg ip
  deaths: no deaths
mice; 88 mg/kg ip
  deaths: 1
mice; ip, 95% confidence interval 98-104 mg/kg
  LD50: 100 mg/kg
[1]; 5 mg/kg ip twice daily, 14 days
  decrease in airway constriction (PENH) produced by bleomycin: 30%
[1]; FIG. 8, after 5 days to end of study
  bleomycin-induced weight loss: attenuates bleomycin-induced weight loss
[1]; FIG. 9, PENH and hydroxyproline, 14 days
  bleomycin-induced airway constriction and collagen accumulation: attenuates bleomycin-induced airway constriction and collagen accumulation
[1]; FIGS. 10, 11
  bleomycin-induced lung injury by histopathology: attenuates bleomycin-induced pulmonary injury; also recorded: attenuates bleomycin-induced lung injury
[1]; MnTBAP alone
  PENH marker: did not affect the PENH marker
  hydroxyproline content of the lung: little effect
  lung histology: no effect on lung histology
  pathology score: no effect on the pathology score
[1]; MnTBAP alone 5 mg/kg ip twice daily, 14 days
  weight loss compared to saline control: did not cause weight loss
[1]; bleomycin 3.5 U/kg it plus MnTBAP 5 mg/kg ip twice daily, 14 days, bleomycin alone 20%
  maximum average loss of initial body weight: 10%
[1]; bleomycin plus MnTBAP
  collagen accumulation by trichrome staining: decreased the collagen accumulation
[1]; fibrosis score scale 0-8, 14 days
  attenuation of bleomycin pathology score: 28%
[1]; histopathology, hematoxylin and eosin
  interstitial thickening and inflammatory responses produced by bleomycin: attenuated the marked interstitial thickening and inflammatory responses
[1]; lung, 5 mg/kg ip twice daily, 14 days
  decrease in hydroxyproline content caused by bleomycin: 23%
[1]; physiologic, biochemical and pathology indices
  attenuation of bleomycin-induced increases in the various indices: roughly 30%
[2]
  accumulation in the lung: does not accumulate in the lung
[2]; lung
  Distribution half-life (T1/2): 0.233 h
  Elimination half-life (T1/2): 9.5 h
  Peak Level (Co): 80 μg/g protein
[2]; serum
  Distribution half-life (T1/2): 0.45 h
  Elimination half-life (T1/2): 9.5 h
  Peak Level (Co): 42 mg/L
[3]
  cytotoxic effects of paraquat in non-tumor cells: protected non-tumor cells against the cytotoxic effects of paraquat
Tumor cells (A549)
  paraquat-mediated cytotoxicity in tumor cells: potentiated paraquat-mediated cytotoxicity
Tumor cells (A549); A549
  relative efficiency of potentiation of paraquat cytotoxicity: more efficient than MnTM-4-PyP
[4]
  cytotoxicity (LDH release): None of the compounds produced cytotoxicity
